Experimental data published in the OPERA property sets (Mansouri et al. 2018).

Settings: not given

In order of falling boiling point:
1. CCCCCCCCN(CCCCCCCC)CCCCCCCC  366 °C
2. CCCCC/C=C\C/C=C\CCCCCCCC(=O)O  365 °C
3. Cc1cc(O)cc(O)c1  290 °C
4. CCOC(=O)[C@H](O)[C@@H](O)C(=O)OCC  280 °C
5. Nc1c(Cl)cc(Cl)cc1Br  273 °C
6. O=[N+]([O-])c1cc(Cl)ccc1Cl  267 °C
7. Cc1cc(C(C)(C)C)cc(C)c1O  248 °C
8. CC(C)(C)c1ccc(Br)cc1  232 °C
9. CC(C)c1ccccc1N  221 °C
10. NCCN1CCNCC1  220 °C
11. NC=O  220 °C
12. CCOC(=O)CC(C)C(=O)OCC (centres undefined)  218 °C
13. CC(C)CC(=O)OC(=O)CC(C)C  215 °C
14. Clc1cc(Cl)nc(Cl)n1  212 °C
15. NCCNCCN  207 °C
16. CCCCCCC[C@H](C)O  194 °C
17. C[C@H]1C[C@H]1C(=O)O  191 °C
18. O=C(Cl)c1cccc(F)c1  189 °C
19. CCCCCCCO  176 °C
20. CN1CCCC(CO)C1 (centres undefined)  142 °C
21. CC(C)CNCC(C)C  140 °C
22. CCC(C)(C)C(=O)Cl  132 °C
23. CCCC(C)OC(C)=O (centres undefined)  130 °C
24. CCC[Si](Cl)(Cl)Cl  124 °C
25. C=C(C)C(C)CCC (centres undefined)  110 °C
26. ClCCBr  107 °C
27. FC(F)(F)C1(F)C(F)(F)C(F)(F)C(F)(C(F)(F)F)C(F)(F)C1(F)F (centres undefined)  100 °C
28. CCC(C)=C(C)C  97.5 °C
29. Fc1cc(F)cc(F)c1  75.5 °C
30. O=C(CC(=O)C(F)(F)F)C(F)(F)F  70 °C
31. CC[SiH2]CC  57 °C
32. CCN(C)C  36.5 °C
33. CC1CCC1  36.3 °C

In order of falling melting point:
1. O=c1[nH]cc(C(F)(F)F)c(=O)[nH]1  316 °C
2. N#CC(C#N)=C1c2cc([N+](=O)[O-])ccc2-c2c1cc([N+](=O)[O-])cc2[N+](=O)[O-]  267 °C
3. CC(=O)[C@@]1(O)[C@H](O)C[C@H]2[C@@H]3CCC4=CC(=O)CC[C@]4(C)[C@H]3CC[C@@]21C  225 °C
4. CC(=O)Oc1cccc2c1C(=O)c1c(OC(C)=O)cc(C(=O)O)cc1C2=O  218 °C
5. CC(=O)OCC(=O)[C@@]1(O)CC[C@H]2[C@@H]3C[C@H](C)C4=CC(=O)C=C[C@]4(C)[C@H]3[C@@H](O)C[C@@]21C  206 °C
6. C=C[C@H]1C[N@@]2CCC1C[C@H]2c1[nH]c2ccccc2c1CCO  186 °C
7. CN1CCCN=C1/C=C/c1cccs1  178 °C
8. NC(=O)NNc1ccccc1  172 °C
9. CC(C)=CCN1CC[C@@]2(C)c3cc(O)ccc3C[C@@H]1[C@@H]2C  146 °C
10. CCCN(CCC)C(=O)C(CCC(=O)O)NC(=O)c1ccccc1 (centres undefined)  144 °C
11. CCOC(=O)[N-]c1c[n+](N2CCOCC2)no1  140 °C
12. CC(C)NC(=O)COC(=O)c1ccccc1  130 °C
13. CC(=O)Oc1ccc(OC(C)=O)cc1  124 °C
14. CC(=O)[O-].[NH4+]  114 °C
15. Cc1cc(O)cc(O)c1  108 °C
16. CSCC[C@H](NC(C)=O)C(=O)O  106 °C
17. O=C(N[C@@H](Cc1ccccc1)C(=O)O)OCc1ccccc1  88.5 °C
18. Nc1c(Cl)cc(Cl)cc1Br  83.5 °C
19. Cc1cc(C(C)(C)C)cc(C)c1O  82.4 °C
20. CCCCCCCCCCCCCCCC(=O)OCCOC(=O)CCCCCCCCCCCCCCC  72 °C
21. CCOC(=O)C=CC(=O)O  70 °C
22. [O-][n+]1onc2ccccc21  70 °C
23. O=[N+]([O-])c1cc(Cl)ccc1Cl  56 °C
24. CCCCCCCCCCCCCCCCCCCC(=O)OCC  50 °C
25. Clc1cc(Cl)nc(Cl)n1  22.5 °C
26. CC(C)(C)c1ccc(Br)cc1  19 °C
27. CCOC(=O)[C@H](O)[C@@H](O)C(=O)OCC  17 °C
28. NC=O  2.55 °C
29. Fc1cc(F)cc(F)c1  -5.5 °C
30. CCCCC/C=C\C/C=C\CCCCCCCC(=O)O  -8.5 °C
31. ClCCBr  -16.7 °C
32. O=C(Cl)c1cccc(F)c1  -30 °C
33. CCCCCCCO  -34 °C
34. CCCCCCC[C@H](C)O  -35.5 °C
35. NCCNCCN  -39 °C
36. CC(C)CNCC(C)C  -73.5 °C
37. CCCC(C)OC(C)=O (centres undefined)  -100 °C
38. CCC(C)=C(C)C  -118 °C
39. CC[SiH2]CC  -134 °C
40. CCN(C)C  -140 °C
41. CC1CCC1  -162 °C

In order of rising log10 vapour pressure (mmHg):
1. Cc1cc(N)ccc1N=Nc1ccc([N+](=O)[O-])cc1  -9.15
2. CCCCCCCCCCCCCCCCCCCC(=O)OCC  -7.72
3. CCCCC/C=C\C/C=C\CCCCCCCC(=O)O  -6.06
4. CCOP(=O)(N=C1SCS1)OCC  -5.19
5. NC=O  -1.21
6. CCCCCCC[C@H](C)O  -1.17
7. CCCCCCCO  -0.665
8. CC(C)CNCC(C)C  0.862
9. CCC[Si](Cl)(Cl)Cl  1.46
10. ClCCBr  1.52
11. CCC(C)=C(C)C  1.7
12. Fc1cc(F)cc(F)c1  2.02
13. CC1CCC1  3.17

In order of rising log10 Henry constant (atm·m³/mol):
1. O=[N+]([O-])c1cc(Cl)ccc1Cl  -4.92
2. CCCCCCCO  -4.73
3. ClCCBr  -3.04

In the case of `CC(C)CNCC(C)C`, the ready biodegradability is reported as “readily biodegradable”.
With `NCCN1CCNCC1` the ready biodegradability was “not readily biodegradable”.
For `O=[N+]([O-])c1cc(Cl)ccc1Cl`, the ready biodegradability was “not readily biodegradable”.
With `CCCCCCCCN(CCCCCCCC)CCCCCCCC` the ready biodegradability was “readily biodegradable”.
In the case of `Cc1cc(O)cc(O)c1`, the ready biodegradability is reported as “not readily biodegradable”.
In the case of `NC=O`, the ready biodegradability is reported as “readily biodegradable”.
In the case of `O=c1[nH]cccc1O`, the ready biodegradability is reported as “not readily biodegradable”.
With `CCCCCCCO` the ready biodegradability was “readily biodegradable”.
In the case of `OCCN1CN(CCO)CN(CCO)C1`, the ready biodegradability is reported as “readily biodegradable”.
With `NCCNCCN` the ready biodegradability was “not readily biodegradable”.

With `CCCCCCCO` the log10 Koc (L/kg) was 1.14.

Same assay, conditions: fish

In order of rising log10 BCF:
1. O=S(=O)([O][Na])c1ccc2cc(O)c(S(=O)(=O)[O][Na])cc2c1  0.3
2. C=CCN(CC=C)CC=C  0.55
3. NCCNCCN  0.65
4. CON(C)C(=O)Nc1ccc(Cl)c(Cl)c1  1.25
5. C=Cc1ccncc1  1.86
6. CCCCCCCCN(CCCCCCCC)CCCCCCCC  1.93
7. O=[N+]([O-])c1cc(Cl)ccc1Cl  2.05
8. Brc1ccc(-c2ccc(Br)cc2)cc1  3.92

In order of falling log10 biotransformation half-life (days):
1. Clc1cccc(-c2c(Cl)cccc2Cl)c1Cl  2.18
2. Brc1ccc(-c2ccc(Br)cc2)cc1  1.57
3. Clc1cc2c(oc3c(Cl)c(Cl)ccc32)c(Cl)c1Cl  0.9
4. O=[N+]([O-])c1cc(Cl)ccc1Cl  0.56
5. CON(C)C(=O)Nc1ccc(Cl)c(Cl)c1  -0.97
